Assay results reported in publication PMC9564123, “Identification of Monobenzone as a Novel Potential Anti-Acute Myeloid Leukaemia Agent That Inhibits RNR and Suppresses Tumour Growth in Mouse Xenograft Model” (Cancers, 2022).

Tests used:
[1] = molecular target: T1, recombinant RNR (RRM1 + RRM2) (Homo sapiens, UniProt P31350); assay: recombinant RNR activity assay, CDP to dCDP conversion; format: biochemical
T1 construct: with Ribonucleoside-diphosphate reductase large subunit
T1 sequence (P31350 1-389): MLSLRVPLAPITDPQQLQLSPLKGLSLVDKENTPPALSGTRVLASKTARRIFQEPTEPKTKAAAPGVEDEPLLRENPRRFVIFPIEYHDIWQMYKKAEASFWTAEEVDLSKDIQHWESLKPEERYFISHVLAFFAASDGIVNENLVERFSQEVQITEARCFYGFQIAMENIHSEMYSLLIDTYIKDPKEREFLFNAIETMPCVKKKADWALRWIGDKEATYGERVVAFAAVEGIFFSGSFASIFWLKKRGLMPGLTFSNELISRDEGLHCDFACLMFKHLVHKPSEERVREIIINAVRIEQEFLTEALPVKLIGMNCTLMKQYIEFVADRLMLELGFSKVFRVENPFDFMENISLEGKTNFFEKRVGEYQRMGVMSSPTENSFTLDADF
T1 sequence (P23921 1-792 partner): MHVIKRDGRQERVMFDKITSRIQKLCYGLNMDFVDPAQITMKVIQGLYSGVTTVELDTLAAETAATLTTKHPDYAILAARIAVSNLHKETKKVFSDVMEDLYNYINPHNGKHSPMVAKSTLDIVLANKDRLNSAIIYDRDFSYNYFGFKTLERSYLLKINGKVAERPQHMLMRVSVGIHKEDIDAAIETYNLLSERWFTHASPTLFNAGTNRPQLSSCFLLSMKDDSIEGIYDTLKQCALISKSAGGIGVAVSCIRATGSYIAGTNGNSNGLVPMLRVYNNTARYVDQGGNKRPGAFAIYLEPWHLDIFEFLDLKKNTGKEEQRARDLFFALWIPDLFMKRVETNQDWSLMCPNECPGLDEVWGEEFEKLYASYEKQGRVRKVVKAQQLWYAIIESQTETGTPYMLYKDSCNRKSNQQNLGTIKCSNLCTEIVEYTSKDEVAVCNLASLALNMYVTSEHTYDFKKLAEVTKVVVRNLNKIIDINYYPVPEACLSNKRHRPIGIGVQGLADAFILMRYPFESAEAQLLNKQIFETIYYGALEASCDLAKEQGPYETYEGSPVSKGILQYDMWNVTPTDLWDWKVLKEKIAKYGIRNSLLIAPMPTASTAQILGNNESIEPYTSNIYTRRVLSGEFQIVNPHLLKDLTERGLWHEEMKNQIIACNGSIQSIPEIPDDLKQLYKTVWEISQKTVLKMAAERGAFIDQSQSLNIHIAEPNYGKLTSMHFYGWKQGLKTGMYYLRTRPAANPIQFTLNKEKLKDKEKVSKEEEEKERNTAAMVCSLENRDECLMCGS

RRM2 = molecular target: T2, RRM2 (Homo sapiens, UniProt P31350); assay: microscale thermophoresis; format: binding
T2 construct: recombinant purified RRM2, lysine-labelled for MST
T2 sequence (P31350 1-389): T1 sequence (P31350 1-389)

## NC(=O)NO [HU, hydroxyurea, reference compound]
[1]
  IC50: 29.8 µM

## Oc1ccc(OCc2ccccc2)cc1 [MB, monobenzone]
[1]
  IC50: 0.25 µM
RRM2
  Kd: 22.5 ± 14 µM
